Measured values from article PMC7496931, “Activation of Sirtuin 2 Inhibitors Employing Photoswitchable Geometry and Aqueous Solubility” (Chemmedchem, 2020).
Values joined by “and” are separate entries in the source; they are usually repeats but may differ in a detail not shown here. Equal values may be shown once. Read-outs that look alike come from different tables or passages of the source.

Tests used:
Assay type in all cases: biochemical
Sirt2 = biological target: T1, Sirt2 (Homo sapiens, UniProt Q8IXJ6); experiment: Fluorescence-based ZMAL deacetylase activity assay, Sirt2
T1 construct: Expression and purification of Sirt1_133−747, Sirt2_56−356, and Sirt3_118−395 was carried out as described previously; made in house
T1 sequence (Q8IXJ6 56-356): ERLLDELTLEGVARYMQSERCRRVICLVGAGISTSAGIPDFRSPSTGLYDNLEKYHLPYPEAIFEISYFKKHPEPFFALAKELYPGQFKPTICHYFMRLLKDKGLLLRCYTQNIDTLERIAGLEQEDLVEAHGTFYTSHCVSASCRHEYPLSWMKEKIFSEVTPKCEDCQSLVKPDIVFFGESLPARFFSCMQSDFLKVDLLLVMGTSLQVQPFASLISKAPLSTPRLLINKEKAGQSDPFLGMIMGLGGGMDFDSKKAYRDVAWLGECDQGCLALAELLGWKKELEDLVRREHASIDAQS
Method: (§1) The effect of the compounds on deacetylase activity of three human sirtuin isotypes (Sirt1–3) was investigated by a homogeneous fluorescence‐based assay, using (Z)‐Lys(acetyl)‐AMC (ZMAL) as substrate. In order to determine the impact of photoisomerization, the respective compounds were irradiated (365 nm, 5 min) in DMSO prior to incubation in the enzyme assay mixture. The results of the irradiated probes were finally compared to non‐irradiated measurements.
(§2) Cloning, expression and purification of recombinant proteins: Expression and purification of Sirt1_133−747, Sirt2_56−356, and Sirt3_118−395 was carried out as described previously.27 Identity and purity were verified by SDS‐PAGE.
(§3) Fluorescence‐based activity assay: The inhibitory effect of compounds on Sirt1–3 was detected via a previously reported fluorescence‐based assay.29 The synthetic substrate (Z)‐Lys(acetyl)‐AMC (ZMAL) is deacetylated by sirtuins, followed by tryptic digestion and thereby release of 7‐aminomethylcoumarin, leading to a fluorescent readout. Inhibition was determined by comparing percentage substrate conversion to a DMSO control after subtraction of the blank fluorescence signal. All compounds were tested at 100 or 50 μM and 10 μM respectively. […] IC50 values were calculated with OriginPro 9.0 G using a non‐linear regression to fit the dose response curve (Figure S6). An enzyme‐free blank control and a 100 % conversion control using AMC instead of ZMAL were measured as well. Inhibition measurements were performed in biological duplicates for all compounds. […]
(§4) Fluorescence-Based Activity Assay (ZMAL-Assay)
(§5) The influence of the synthesized compounds on the deacetylase activity of the class I sirtuins Sirt1–3 was determined in a homogenous fluorescence-based enzyme assay, using the artificial substrate Z-(Ac)Lys-AMC (ZMAL). ZMAL is processed by sirtuins yielding Z-Lys-AMC.
(§6) The latter is subsequently cleaved by tryptic digestion, releasing 7-amino-4-methylcoumarin (AMC), excitation of which leads to a fluorescent read out (λex=390 nm; λem=460 nm). Instead, […]
(§7) contribute to the fluorescence signal. Therefore, the fluorescence intensity is proportional to the activity of the respective sirtuin.
(§8) After subtraction of the blank fluorescence signal (without enzyme) from the signal of the respective probe, the residual signal intensity is related to a 100 % conversion control (AMC), […]
(§9) yielding the percentage substrate conversion. Comparison of the determined substrate conversion with a no-inhibition DMSO control yields the percentage inhibition at the respective […]
(§10) For determination of IC50, inhibitory activity of the respective compound was determined at 8 to 10 distinct concentrations. The measured values were analysed by a non-linear fit to the dose-response curve using a four parameter logistic model (Figure S6):
(§11) Figure S6: Non-linear regression of the dose-response curves of compounds 15c and 15f at the thermal equilibrium (∆, black) and after 5 minutes of 365 nm irradiation (red). […]
(§12) A maximal polarization control using just DMSO and a minimal polarization control using 1 µL of the 400 µM solution of 22 instead of inhibitor were performed as well as a blank control containing 1 µL of DMSO in 19 µL assay buffer. The mixture was incubated 10 min at 37 °C

Sirt1 = biological target: T2, Sirt1 (Homo sapiens, UniProt Q96EB6); experiment: Fluorescence-based ZMAL deacetylase activity assay, Sirt1
T2 construct: Expression and purification of Sirt1_133−747, Sirt2_56−356, and Sirt3_118−395 was carried out as described previously; made in house
T2 sequence (Q96EB6 133-747): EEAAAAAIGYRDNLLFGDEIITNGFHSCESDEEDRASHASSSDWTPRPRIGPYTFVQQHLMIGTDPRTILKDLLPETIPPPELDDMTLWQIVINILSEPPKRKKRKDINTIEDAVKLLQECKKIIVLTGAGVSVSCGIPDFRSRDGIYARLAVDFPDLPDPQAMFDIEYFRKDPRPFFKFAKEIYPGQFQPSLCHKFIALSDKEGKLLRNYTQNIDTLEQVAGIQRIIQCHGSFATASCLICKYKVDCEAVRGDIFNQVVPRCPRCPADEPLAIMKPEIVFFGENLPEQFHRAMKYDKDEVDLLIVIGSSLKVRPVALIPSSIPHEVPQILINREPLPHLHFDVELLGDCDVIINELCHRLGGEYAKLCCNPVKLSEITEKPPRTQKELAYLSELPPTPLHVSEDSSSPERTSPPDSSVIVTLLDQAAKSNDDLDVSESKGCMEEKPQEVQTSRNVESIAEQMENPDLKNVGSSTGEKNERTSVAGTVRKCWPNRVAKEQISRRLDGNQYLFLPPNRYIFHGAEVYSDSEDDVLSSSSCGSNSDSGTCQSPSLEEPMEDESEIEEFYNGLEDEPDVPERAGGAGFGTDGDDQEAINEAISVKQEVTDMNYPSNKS
Method: as §1, §2, §3, §4, §5, §6, §7, §8, §9, §10, §11
A maximal polarization control using just DMSO and a minimal polarization control using 1 µL of the 400 µM solution of 22 instead of inhibitor were performed as well as a blank control containing 1 µL of DMSO in 19 µL assay buffer. The mixture was incubated 10 min at 37 °C […]
(1 picture or pasted object on this page, not shown here)

Sirt3 = biological target: T3, Sirt3 (Homo sapiens, UniProt Q9NTG7); experiment: Fluorescence-based ZMAL deacetylase activity assay, Sirt3; set-up: key to Sirt3 inhibition Δ (class) / Sirt3 inhibition PSS [365 nm] (class): n.i.: no inhibition detected (<30 % @ 100 μM); u.i.: unspecific interactions
T3 construct: Expression and purification of Sirt1_133−747, Sirt2_56−356, and Sirt3_118−395 was carried out as described previously; made in house
T3 sequence (Q9NTG7 118-395): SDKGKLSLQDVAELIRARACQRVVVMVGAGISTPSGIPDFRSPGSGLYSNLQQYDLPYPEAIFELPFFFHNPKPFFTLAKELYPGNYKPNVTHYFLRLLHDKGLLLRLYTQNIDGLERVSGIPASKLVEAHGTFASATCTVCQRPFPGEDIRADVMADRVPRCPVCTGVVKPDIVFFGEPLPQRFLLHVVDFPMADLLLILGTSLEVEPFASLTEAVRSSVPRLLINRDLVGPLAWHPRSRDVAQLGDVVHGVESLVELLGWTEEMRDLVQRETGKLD
Method: as §1, §2, §3, §4, §5, §6, §7, §8, §9, §10, §11, §12

[1] = PSS after 5 min UV irradiation (365 nm), read-out: Sirt2 inhibition PSS [365 nm], percent inhibition (converted)
[2] = thermal equilibrium (Δ), read-out: Sirt2 inhibition Δ, percent inhibition (converted)
[3] = thermal equilibrium (Δ), read-out: Sirt2 inhibition Δ, percent inhibition
[4] = PSS after 5 min UV irradiation (365 nm), read-out: Sirt1 inhibition PSS [365 nm] (class)
[5] = thermal equilibrium (Δ), read-out: Sirt1 inhibition Δ (class)
[6] = PSS after 5 min UV irradiation (365 nm), read-out: Sirt3 inhibition PSS [365 nm], percent inhibition
[7] = thermal equilibrium (Δ), read-out: Sirt3 inhibition Δ, percent inhibition
[8] = PSS after 5 min UV irradiation (365 nm), read-out: Sirt2 inhibition PSS [365 nm], IC50
[9] = thermal equilibrium (Δ), read-out: Sirt2 inhibition Δ, IC50
[10] = PSS after 5 min UV irradiation (365 nm)
[11] = PSS after 5 min UV irradiation (365 nm), read-out: Sirt2 inhibition PSS [365 nm], percent inhibition

SMILES: NC(=O)c1cncc(/N=N/c2c(O)ccc3ccccc23)c1 [7 c]
- inhibition at 10 µM (Sirt2; non-irradiated, read-out: Sirt2 inhibition, percent inhibition relative to controls): 55%
- Sirt1 inhibition (class) (Sirt1; non-irradiated): n.i. (n.i.: no inhibition detected (<30 % @ 100 μM))
- inhibition at 10 µM (Sirt3; non-irradiated, read-out: Sirt3 inhibition, percent inhibition relative to controls): 64%

SMILES: Cc1cc(/N=N/c2cncc(C(N)=O)c2)cc(C)c1N [7 f]
- IC50 (Sirt2; non-irradiated, read-out: Sirt2 inhibition, IC50): 6 µM and 5.8 µM
- inhibition at 100 µM (Sirt1; @ 100 μM, non-irradiated, read-out: Sirt1 inhibition, percent inhibition relative to controls): 47%
- IC50 (Sirt3; non-irradiated, read-out: Sirt3 inhibition, IC50): 9 µM and 9.4 µM

SMILES: CC(=O)Nc1c(C)cc(/N=N/c2cncc(C(N)=O)c2)cc1C [9 a]
- inhibition at 10 µM (Sirt2; [1]): 11%
- inhibition at 10 µM (Sirt2; [2]): 17%
- inhibition at 100 µM (Sirt2; [3]): 65%
- inhibition at 100 µM (Sirt1; [4]): < 30%
- inhibition at 100 µM (Sirt1; [5]): < 30%
- inhibition at 100 µM (Sirt3; [6]): 52%
- inhibition at 100 µM (Sirt3; [7]): 68%

SMILES: CCCC(=O)Nc1c(C)cc(/N=N/c2cncc(C(N)=O)c2)cc1C [9 b]
- inhibition at 10 µM (Sirt2; [1]): 4%
- inhibition at 10 µM (Sirt2; [2]): 30%
- inhibition at 100 µM (Sirt1; [4]): < 30%
- inhibition at 100 µM (Sirt1; [5]): < 30%
- inhibition at 100 µM (Sirt3; [6]): 52%
- inhibition at 100 µM (Sirt3; [7]): 80%

SMILES: CCCCCC(=O)Nc1c(C)cc(/N=N/c2cncc(C(N)=O)c2)cc1C [9 c]
- inhibition at 10 µM (Sirt2; [1]): 24%
- inhibition at 10 µM (Sirt2; [2]): 40%
- inhibition at 100 µM (Sirt1; [4]): < 30%
- inhibition at 100 µM (Sirt1; [5]): < 30%
- inhibition at 10 µM (Sirt3; [6]): 3%
- inhibition at 10 µM (Sirt3; [7]): 20%

SMILES: CCCCCCCC(=O)Nc1c(C)cc(/N=N/c2cncc(C(N)=O)c2)cc1C [9 d]
- inhibition at 10 µM (Sirt2; [1]): 54%
- inhibition at 10 µM (Sirt2; [2]): 26%
- increase of Sirt2 inhibition upon 365 nm irradiation (factor) (Sirt2; PSS 365 nm versus thermal equilibrium): about fivefold
- IC50 (Sirt2; [8]): 7.9 ± 0.7 µM
- IC50 (Sirt2; [9]): 44 ± 9.5 µM
- inhibition at 100 µM (Sirt1; [4]): < 30%
- inhibition at 100 µM (Sirt1; [5]): < 30%
- Sirt3 inhibition PSS [365 nm] (class) (Sirt3; [10]): u.i.
- Sirt3 inhibition Δ (class) (Sirt3; thermal equilibrium (Δ)): u.i.

SMILES: CCCCCCCCCC(=O)Nc1c(C)cc(/N=N/c2cncc(C(N)=O)c2)cc1C [9 e]
- inhibition at 10 µM (Sirt2; [1]): 78%
- inhibition at 10 µM (Sirt2; [2]): 26%
- inhibition at 100 µM (Sirt1; [4]): < 30%
- inhibition at 100 µM (Sirt1; [5]): < 30%
- Sirt3 inhibition PSS [365 nm] (class) (Sirt3; [10]): u.i.
- Sirt3 inhibition Δ (class) (Sirt3; thermal equilibrium (Δ)): u.i.

SMILES: CCCCCCCCCCCC(=O)Nc1c(C)cc(/N=N/c2cncc(C(N)=O)c2)cc1C [9 f]
- inhibition at 10 µM (Sirt2; [1]): 65%
- inhibition at 10 µM (Sirt2; [2]): 46%
- inhibition at 100 µM (Sirt1; [4]): < 30%
- inhibition at 100 µM (Sirt1; [5]): < 30%
- Sirt3 inhibition PSS [365 nm] (class) (Sirt3; [10]): u.i.
- Sirt3 inhibition Δ (class) (Sirt3; thermal equilibrium (Δ)): u.i.

SMILES: CCCCCCCCCCCCCC(=O)Nc1c(C)cc(/N=N/c2cncc(C(N)=O)c2)cc1C [9 g]
- IC50 (Sirt2; [8]): 0.9 ± 0.2 µM
- IC50 (Sirt2; [9]): 2.2 ± 0.3 µM
- inhibition at 100 µM (Sirt1; [4]): < 30%
- inhibition at 100 µM (Sirt1; [5]): < 30%
- Sirt3 inhibition PSS [365 nm] (class) (Sirt3; [10]): u.i.
- Sirt3 inhibition Δ (class) (Sirt3; thermal equilibrium (Δ)): u.i.

SMILES: Cc1cc(/N=N/c2cncc(C(N)=O)c2)cc(C)c1NC(=O)c1ccccc1 [9 h]
- inhibition at 100 µM (Sirt2; [11]): 52%
- inhibition at 100 µM (Sirt2; [3]): 27%
- inhibition at 100 µM (Sirt1; [4]): < 30%
- inhibition at 100 µM (Sirt1; [5]): < 30%
- inhibition at 100 µM (Sirt3; [6]): 32%
- Sirt3 inhibition Δ (class) (Sirt3; thermal equilibrium (Δ)): n.i. (n.i.: no inhibition detected (<30 % @ 100 μM))

SMILES: Cc1cc(/N=N/c2cncc(C(N)=O)c2)cc(C)c1NC(=O)c1ccc(F)cc1 [9 i]
- inhibition at 10 µM (Sirt2; [1]): 15%
- inhibition at 10 µM (Sirt2; [2]): 15%
- inhibition at 100 µM (Sirt1; [4]): < 30%
- inhibition at 100 µM (Sirt1; [5]): < 30%
- Sirt3 inhibition PSS [365 nm] (class) (Sirt3; [10]): n.i. (n.i.: no inhibition detected (<30 % @ 100 μM))
- Sirt3 inhibition Δ (class) (Sirt3; thermal equilibrium (Δ)): n.i. (n.i.: no inhibition detected (<30 % @ 100 μM))

SMILES: Cc1cc(/N=N/c2cncc(C(N)=O)c2)cc(C)c1NC(=O)c1ccc(-c2cccs2)cc1 [9 j]
- inhibition at 100 µM (Sirt2; [11]): 59%
- inhibition at 100 µM (Sirt2; [3]): 80%
- inhibition at 100 µM (Sirt1; [4]): < 30%
- inhibition at 100 µM (Sirt1; [5]): < 30%
- Sirt3 inhibition PSS [365 nm] (class) (Sirt3; [10]): u.i.
- Sirt3 inhibition Δ (class) (Sirt3; thermal equilibrium (Δ)): u.i.
